Laboratory results taken from US6670399B2, “Compounds and methods for modulating cerebral amyloid angiopathy” (Neurochem (International) Limited, priority 1999, dated 2003).

System: hAPP transgenic mice
Test: Extent of CAA in brain sections of hAPP transgenic mice after 8 weeks of treatment, Thioflavin S staining
Type: in vivo
Settings: for # of animals with CAA: nine week old hAPP transgenic mice
Description: The ability of compounds of the invention to inhibit CAA was measured in the following example. Nine week old hAPP transgenic mice were treated for a period of 8 weeks with two different concentrations of a compound of the present invention, 3-amino-1-propanesulfonic acid, sodium salt, 100 and 30 mg/kg. Mice were administered the compound for 8 weeks, after which they were sacrificed and their brains were perfused and processed for histological staining with Thioflavin S. This method may also be used as a screening method for determining activity of a candidate compound for inhibiting CAA.
The extent of CAA in brain sections obtained from these animals was qualitatively determined following staining.

[1] = 100 mg/kg (printed 100 mg · kg), hAPP transgenic mice
[2] = 100 and 30 mg/kg, hAPP transgenic mice, versus vehicle

Structure (SMILES): NCCCS(=O)(=O)[O-].[Na+] [3-amino-1-propanesulfonic acid, sodium salt]
- CAA Severity + (slight deposition), animals with grade/animals with CAA (30 mg/kg, hAPP transgenic mice): 6/10
- CAA Severity ++ (moderate deposition), animals with grade/animals with CAA (30 mg/kg, hAPP transgenic mice): 4/10
- CAA animals/total animals (30 mg/kg, hAPP transgenic mice): 10/11
- # of animals with CAA (30 mg/kg, 11 animals in study): 10
- CAA Severity + (slight deposition), animals with grade/animals with CAA [1]: 9/10
- CAA Severity +++ (severe deposition), animals with grade/animals with CAA [1]: 1/10
- CAA animals/total animals [1]: 10/15
- # of animals with CAA (100 mg/kg (printed 100 mg · kg), 15 animals in study): 10
- effect on the severity of the deposition seen in the brain vasculature [2]: showing an effect
- reducing the number of mice showing CAA [2]: effective
